In publication PMC10630452, “The tumor-enriched small molecule gambogic amide suppresses glioma by targeting WDR1-dependent cytoskeleton remodeling” (Signal Transduction and Targeted Therapy, 2023):

Assay: BBB permeability assay in U87MG-SLC intracranial xenograft mice
Assay type: in vivo, mouse
Details: nude, mouse, in vivo, iv, 10 mg/kg
Protocol: Fig. 2 The BBB permeability and tumor suppressor ability of GA-amide compared with TMZ. GA-amide (a) or TMZ (b) concentration in the tumor area and normal brain tissue following a single injection of GA-amide (10 mg/kg, i.v.) or TMZ (10 mg/kg, i.v.). The data are presented as the means ± SEMs (n = 3). c Western blot analysis of the expression of TrkA in mouse tumor tissues (T) and normal brain tissues (N), n = 4. d Western blot analysis of glycosylated TrkA expression in human normal brain tissues (N) and glioma tissues of different grades. e Time curve of GA-amide and TMZ treatment in a cell viability assay (MTS) in T2-4, GSC2 and T12-1 cells. f–h A PDX mouse model was established, and the mice were treated with vehicle (control, n = 9), 2 mg/kg GA-amide (n = 9), 2 mg/kg GAC (n = 9) or […] TMZ (n = 8) by i.p. injection daily for 10 days. A summary photograph is presented in (f), statistical results in (g) and the body weights of mice in (h); the mean ± SEMs are shown. n.s: P ≥ 0.05, *P < 0.05, **P < 0.01 and ***P < 0.001 compared with the control group by one-way ANOVA at each time point
Mice bearing U87MG-SLC cell intracranial xenografts were injected with GA-amide (i.v.), and tissues from the brain tumor area and normal brain tissues were collected at different times after injection. […] The diagnostic product ions for GA-amide were detected at m/z 628.3/572.2.

Compound: CC(C)=CCC[C@]1(C)C=Cc2c(O)c3c(c(CC=C(C)C)c2O1)O[C@]12C(=C[C@@H]4CC1C(C)(C)O[C@@]2(C/C=C(/C)C(N)=O)C4=O)C3=O [GA-amide, gambogic amide]
- Tmax: 2 min
